In patent US11299760B2 (Amgen Inc., priority 2013, dated 2022):

Key:
[1] = tested on: recombinant cell line producing MAb E; assay: ATF bioreactors, high mannose analysis (RP-HPLC/MS); format: cell-based
Description: (§1) The applicability of using monensin to modulate high mannose levels in a large scale, controlled production setting was evaluated using a recombinant cell line producing MAb E in alternating tangential flow (ATF) bioreactors. MAb E cells grown in growth medium for the seed train were used to inoculate the N-1 bioreactor at 6×10^5 cells/ml in growth medium. The cells from N-1 bioreactor were then used to inoculate three, 2 L production bioreactors (N) at 7.5×10^5 cells/ml in base perfusion medium (referred to as control, Ra, and Rb bioreactors).
(§2) The production bioreactors were grown for 20 days at pH 7.00, 36° C., 30% DO and 400 rpm agitation. These production tanks were run with the ATF system starting on day 3 with 0.5 vol/day perfusion rate, which was increased to 0.6 vol/day, 0.8352 vol/day and 1 vol/day on day 6, 7 and 8, respectively. Glucose levels were maintained separately at 5 g/L since the perfusion medium was prepared without glucose.
Antifoam was also added into the tank as needed, while 1M Sodium Carbonate was used to maintain pH at the desired setpoint. Daily tank samples were collected for the measurement of various cell culture parameters as well as for the titer and high mannose analyses.
Sixty micrograms of daily MAb E samples collected from ATF bioreactors were digested into the Fc/2 and Fab′2 with 60 units of the IdeS enzyme (fabRICATOR, Genovis, Lund, Sweden) in 50 mM Sodium Phosphate, 150 mM NaCl, pH 6.6 with incubation in a 37° C. water bath for 30 minutes. The digested samples were then reduced in 4M Guanidine Hydrochloride 50 mM Tris, pH 8.3 with 50 mM DTT followed by incubation in a 55° C. heat block for 10 minutes resulting in reduction to Fc/2, LC and Fd.
Following digestion and reduction, samples were analyzed immediately by RP-HPLC/MS.
Analysis was performed using Waters Acquity Ultra-Performance liquid chromatography (UPLC) system (Waters, Milford, Mass.) coupled to an Agilent MST Time of Flight (TOF) mass spectrometer (Agilent Technologies, Santa Clara, Calif.). The digested and reduced samples were separated on a reversed-phased Waters BEH Phenyl column (1.7 micron particle size, 2.1×150 mm; Waters, Milford, Mass.) maintained at 80° C. […]
Five micrograms of each sample was injected and eluted at a flow rate of 0.5 mL/min with the following gradient: 30% B was held for 2.5 minutes followed by a gradient from 30% to 45% B over a duration of 5 minutes, followed by a gradient from 45% to 100% B over 0.5 minutes; B was held at 100% for 4 minutes, followed by a gradient of 100% to 30% B over 0.1 minutes, and then held at 30% B for the remaining 2.9 minutes. The UV elution was also monitored at a wavelength of 220 nm. […] Ion intensities of the deconvoluted peaks were used for quantification of the glycan species.

[2] = tested on: recombinant cell line producing MAb E; assay: ATF bioreactors, cell culture performance; format: cell-based; details: 500 nM monensin for ~22 hours from day 8; ATF reactors Ra, Rb
Description: Cells in the control reactor (black circles) were grown in the absence of monensin. Viable cell density is illustrated in FIG. 1. FIG. 2 presents the results of viability analysis. […] Daily spent medium samples were also submitted for titer analysis.
as §1, §2
Antifoam was also added into the tank as needed, while 1M Sodium Carbonate was used to maintain pH at the desired setpoint. […]

[3] = tested on: recombinant CHO cell line producing an antibody (MAb A); assay: six day batch assay, cell culture parameters (VCD, viability, titer); format: cell-based, Chinese hamster; details: for Titer / VCD / Viability: day 6
Description: Cells were centrifuged at 1500 rpm for five minutes and seeded at 2×10^6 cells per ml into batch production medium in a 24 deep-well plate at a final volume of 3 ml.
Cell density and viability were measured by Guava easyCyte flow cytometer (Milipore, Billerica, Mass.) with the ViaCount application. Cultures were spun down, supernatants were filtered on 0.4 micron filters, and were analyzed for titer and glycan distribution.
Antibody titer was measured by loading filtered cell culture supernatants over a POROS A/20 Protein A column (Applied Biosystems, Carlsbad, Calif.) equilibrated with 20 mM Tris, […], pH 7.0 buffer. Antibody elution was performed with 220 mM acetic acid, […], pH 2.6 buffer at a mobile phase flow rate of 4.0 ml/min. Eluted antibody was detected at a wavelength of 280 nm. Antibody concentration was determined based on a standard curve with a reference antibody standard. For high molecular weight measurement, antibodies were purified from spent medium supernatants on ATOLL columns (ATOLL-Bio Inc USA, Lawrance, Kans.) and were then analyzed using size exclusion chromatography.
Cell culture performance was assessed via viable cell density (VCD), viability and titer measurements of harvested samples. Each bar represents an average result for duplicate cell culture samples. Each value is an average of duplicates.

[4] = 500 nM monensin for ~22 hours from day 8, MAb E

CC[C@@]1([C@@H]2O[C@@H]([C@H]3O[C@@](O)(CO)[C@H](C)C[C@@H]3C)C[C@@H]2C)CC[C@H]([C@]2(C)CC[C@]3(C[C@H](O)[C@@H](C)[C@@H]([C@@H](C)[C@@H](OC)[C@H](C)C(=O)O)O3)O2)O1 [monensin]
high mannose levels, initial spike [1, 4]: 35-50% | increase in the levels of high mannose glycans on the recombinant antibodies [1, 4]: 9-10 fold | high mannose levels on the day of the harvest ([1]; after flushing out of monensin by perfusion, MAb E): 15-17% | produced antibodies containing high mannose glycans at peak ([1]; day 10, 500 nM monensin for ~22 hours from day 8, from predicted and measured levels): 89% | impact on cell growth and viability [2]: slight negative impact on cell growth and viability | titers compared to the control tank [2]: marginally improved titers | Titer ([3]; 0.1 nM monensin added day 1): 3.835 g/L | VCD ([3]; 0.1 nM monensin added day 1): 10 10^6c/ml | Viability ([3]; 0.1 nM monensin added day 1): 81% | Titer ([3]; 0.5 nM monensin added day 1): 4.415 g/L | VCD ([3]; 0.5 nM monensin added day 1): 11 10^6c/ml | Viability ([3]; 0.5 nM monensin added day 1): 81% | Titer ([3]; 1 nM monensin added day 1): 4.265 g/L | VCD ([3]; 1 nM monensin added day 1): 11 10^6c/ml | Viability ([3]; 1 nM monensin added day 1): 82% | Titer ([3]; 5 nM monensin added day 1): 3.45 g/L | VCD ([3]; 5 nM monensin added day 1): 11 10^6c/ml | Viability ([3]; 5 nM monensin added day 1): 82% | Titer ([3]; 10 nM monensin added day 1): 3.635 g/L | VCD ([3]; 10 nM monensin added day 1): 11 10^6c/ml | Viability ([3]; 10 nM monensin added day 1): 81% | impact on cell culture parameters ([3]; 25 nM bolus on day 0 or 200 nM or 100 nM bolus on day 3): no negative impact on cell culture parameters | Titer ([3]; 25 nM monensin added day 1): 5.22 g/L | VCD ([3]; 25 nM monensin added day 1): 11 10^6c/ml | Viability ([3]; 25 nM monensin added day 1): 85% | Titer ([3]; 50 nM monensin added day 1): 2.025 g/L | VCD ([3]; 50 nM monensin added day 1): 5 10^6c/ml | Viability ([3]; 50 nM monensin added day 1): 72% | Titer ([3]; 100 nM monensin added day 3): 3.515 g/L | VCD ([3]; 100 nM monensin added day 3): 11 10^6c/ml | Viability ([3]; 100 nM monensin added day 3): 86% | Titer ([3]; 200 nM monensin added day 3): 4.43 g/L | VCD ([3]; 200 nM monensin added day 3): 11 10^6c/ml | Viability ([3]; 200 nM monensin added day 3): 87% | Titer ([3]; 500 nM monensin added day 3): 3.055 g/L | VCD ([3]; 500 nM monensin added day 3): 5 10^6c/ml | Viability ([3]; 500 nM monensin added day 3): 41%
